Data published in patent publication US9156790B2, “Anticancer P21-activated kinase inhibitors” (Ohio State Innovation Foundation, priority 2013, dated 2015).
Entries after “also recorded” stand apart in the source; their conditions may differ.

Experiments:
FTC133 cells = assay: Boyden chamber migration assay, FTC133; format: cell-based, Human; settings: 2.5 μM or 5.0 μM, 12 hours
Method: (§1) Cells were grown in media containing 10% FBS. After 24 hours, the medium was aspirated, and media containing 1% FBS was added for 24 hours. The cells were trypsinized for 2 to 5 minutes, washed, and resuspended in media containing 1% FBS. The cell concentration was calculated by hemocytometer. Four hundred μl 1% FBS medium was added into 24-well plates, and a Boyden chamber (8 μm pore) was inserted into each well. Cells were added to each insert, and were allowed to attach in an incubator at 37° C. at 5% CO2 for 2 hours. The cells were then exposed to various concentrations of drugs or control diluent for 3 hours. The inserts were switched to a new well containing media containing 10% FBS, and the chamber was incubated for 12 or 24 hours depending on the migration rate of the cell line. The cells on and under the Boyden chamber membrane were fixed with 3.7% formaldehyde containing 0.05% crystal violet for 15 min after washing cells with PBS. The chambers were washed with distilled water. […] The Q-tips containing the scraped cells and the Boyden chamber containing the non-migrated cells were separately incubated in 80% methanol, shaken at 500 g for 30 minutes, and the extracted dye was measured at 570 nm. Migration was quantified as the ratio of the migrated cells over the total cells (non-migrated plus […]). […]

MEK1 = MEK1 (Homo sapiens, UniProt Q02750); assay: Kinase profiling panel: MEK1; format: biochemical; settings: 5 μM compound; average of triplicate
Sequence of MEK1 (Q02750 whole entry, species assumed): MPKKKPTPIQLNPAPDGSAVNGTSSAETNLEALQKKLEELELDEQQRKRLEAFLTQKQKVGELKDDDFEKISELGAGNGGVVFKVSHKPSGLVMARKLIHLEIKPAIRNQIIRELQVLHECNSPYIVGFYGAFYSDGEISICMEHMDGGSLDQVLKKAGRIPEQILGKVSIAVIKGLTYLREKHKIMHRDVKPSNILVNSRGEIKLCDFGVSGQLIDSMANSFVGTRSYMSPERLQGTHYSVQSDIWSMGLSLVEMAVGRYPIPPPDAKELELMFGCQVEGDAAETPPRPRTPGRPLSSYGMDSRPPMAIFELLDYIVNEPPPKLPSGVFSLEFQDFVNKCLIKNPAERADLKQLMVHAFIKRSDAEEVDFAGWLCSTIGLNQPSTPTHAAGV
Method: (§2) To further probe the selectivity of the compounds 4 and 15, they were subjected for kinase profiling service for screening against a panel of other kinases selected based on the kinase tree at 5 μM concentration, at or above the IC50 for the two compounds versus PAK in both in vitro and cell-based assays. […] PAK1 was not available for testing using this system thus it was not possible to compare directly in this assay system.

PKBγ = PKBγ (Homo sapiens, UniProt Q9Y243); assay: Kinase profiling panel: PKBγ; format: biochemical; settings: 5 μM compound; for remaining activity at 5 µM: average of triplicate, read-out: % activity vs. DMSO, PKBγ
Sequence of PKBγ (Q9Y243 whole entry, species assumed): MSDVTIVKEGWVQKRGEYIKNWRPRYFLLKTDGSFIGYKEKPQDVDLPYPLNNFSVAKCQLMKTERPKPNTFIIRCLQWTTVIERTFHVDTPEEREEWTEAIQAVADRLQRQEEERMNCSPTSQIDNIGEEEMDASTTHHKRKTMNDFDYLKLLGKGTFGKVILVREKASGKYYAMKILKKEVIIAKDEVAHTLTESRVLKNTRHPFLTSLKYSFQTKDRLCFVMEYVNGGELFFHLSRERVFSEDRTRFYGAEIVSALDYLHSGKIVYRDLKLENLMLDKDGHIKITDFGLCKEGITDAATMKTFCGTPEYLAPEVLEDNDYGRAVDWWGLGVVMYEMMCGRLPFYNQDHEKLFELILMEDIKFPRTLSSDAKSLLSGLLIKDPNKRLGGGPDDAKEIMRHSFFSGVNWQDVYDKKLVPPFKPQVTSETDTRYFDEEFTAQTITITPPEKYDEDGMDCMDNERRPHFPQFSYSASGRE
Method: as §2

PAK4 = PAK4 (Homo sapiens, UniProt O96013); assay: Kinase profiling panel: PAK4; format: biochemical; settings: 5 μM compound; average of triplicate
Sequence of PAK4 (O96013 whole entry, species assumed): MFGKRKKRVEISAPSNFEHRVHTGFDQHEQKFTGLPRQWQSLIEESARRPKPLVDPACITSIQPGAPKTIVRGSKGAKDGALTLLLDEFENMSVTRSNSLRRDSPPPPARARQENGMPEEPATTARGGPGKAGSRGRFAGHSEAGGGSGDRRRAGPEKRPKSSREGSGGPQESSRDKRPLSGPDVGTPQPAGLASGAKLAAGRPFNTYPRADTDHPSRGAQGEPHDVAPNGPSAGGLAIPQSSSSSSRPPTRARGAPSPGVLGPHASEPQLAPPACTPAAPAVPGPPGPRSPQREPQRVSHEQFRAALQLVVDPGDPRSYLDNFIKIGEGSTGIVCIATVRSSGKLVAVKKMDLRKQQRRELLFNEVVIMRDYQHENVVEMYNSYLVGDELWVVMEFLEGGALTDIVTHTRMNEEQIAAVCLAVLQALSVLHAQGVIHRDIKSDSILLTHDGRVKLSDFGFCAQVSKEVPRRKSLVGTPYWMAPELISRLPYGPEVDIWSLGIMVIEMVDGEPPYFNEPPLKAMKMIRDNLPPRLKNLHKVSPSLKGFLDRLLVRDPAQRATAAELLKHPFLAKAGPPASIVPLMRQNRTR
Method: as §2

[1] = test system: PAK phosphorylation of Vimentin (Ser56); assay: Western blot, PAK phosphorylation of Vimentin (Ser56) in thyroid cancer cells; format: cell-based, Human; settings: for PAK phosphorylation of vimentin (Western blot): 7.5 μM, 6 h, FTC133 and TPC1 cells (FIG. 3); for PAK phosphorylation of vimentin (Western blot) / Dose-dependency of PAK inhibition (Vimentin phosphorylation): BCPAP; for IC50: Homo sapiens, cell-based assays, read-out: IC50 versus PAK, cell-based; for Dose-dependency of PAK inhibition (Vimentin phosphorylation): dose-response, 6 hours, FTC133 and TPC1 cells (FIG. 4A)
Method: (§3) Protein isolation and Western blot were performed as previously described. Ringel et al., Cancer research 61:6105-6111 (2001). 25 μg of total cell lysates were loaded into 4-12% SDS-PAGE, electrophoresed, and transferred to nitrocellulose membranes for immunoblotting. Primary antibodies against Akt (#9272), phospho-Akt (Thr308) (#2965), p44/42 MAPK (Erk1/2) (#9107), phospho-p44/42 MAPK (Erk1/2) (Thr202/Tyr204) (#4377) and GAPDH (#2118) were obtained from Cell Signaling Technology (Danvers, Mass., USA). Antibody against Vimentin (V6630) and phospho-Ser55 Vimentin were from Sigma-Aldrich, Inc. (St. Louis, Mo.) and MBL Co. (Nagoya, Japan), respectively. Antibodies against total and phosphorylated S6 were from Cell Signaling Technology®.
The ability of the compounds with in vitro anti-PAK1 activity was assessed for activity […] in thyroid cancer cells. In addition, because the compounds are based on the structure of a PDK1 inhibitor, PDK1 inhibitory activity was also assessed. Inhibitory activity in cells was estimated using Western blot with primary antibodies directed against kinase-specific phosphorylation sites; serine 56 of vimentin for PAK and threonine 308 of Akt for PDK1. BCPAP, TPC1, and FTC133 thyroid cancer cells were utilized. BCPAP and TPC1 are derived from PTC and have BRAF V600E and RET/PTC1 rearrangements, respectively. FTC133 is derived from a follicular thyroid cancer with an inactivating mutation of PTEN. Similar to the kinase screening assay, cells were treated with the six compounds or OSU-03012 at 7.5 μM concentration or with DMSO vehicle alone. The results were not entirely consistent across the three cell lines presumably related to mutation status or other factors. OSU-03012 inhibited both PDK1 and PAK-mediated phosphorylation of targets as predicted.
(§4) The dose-dependency of compounds 4 and 15 was next assessed (FIG. 4). […] Due to the important role that ERK activation plays in thyroid cancer, and its signaling activation by thyroid oncogenes, the effects of the compounds on ERK phosphorylation was also assessed.

PAK3 = PAK3 (Homo sapiens, UniProt O75914); assay: Kinase profiling panel: PAK3; format: biochemical; settings: 5 μM compound; average of triplicate
Sequence of PAK3 (O75914 whole entry, species assumed): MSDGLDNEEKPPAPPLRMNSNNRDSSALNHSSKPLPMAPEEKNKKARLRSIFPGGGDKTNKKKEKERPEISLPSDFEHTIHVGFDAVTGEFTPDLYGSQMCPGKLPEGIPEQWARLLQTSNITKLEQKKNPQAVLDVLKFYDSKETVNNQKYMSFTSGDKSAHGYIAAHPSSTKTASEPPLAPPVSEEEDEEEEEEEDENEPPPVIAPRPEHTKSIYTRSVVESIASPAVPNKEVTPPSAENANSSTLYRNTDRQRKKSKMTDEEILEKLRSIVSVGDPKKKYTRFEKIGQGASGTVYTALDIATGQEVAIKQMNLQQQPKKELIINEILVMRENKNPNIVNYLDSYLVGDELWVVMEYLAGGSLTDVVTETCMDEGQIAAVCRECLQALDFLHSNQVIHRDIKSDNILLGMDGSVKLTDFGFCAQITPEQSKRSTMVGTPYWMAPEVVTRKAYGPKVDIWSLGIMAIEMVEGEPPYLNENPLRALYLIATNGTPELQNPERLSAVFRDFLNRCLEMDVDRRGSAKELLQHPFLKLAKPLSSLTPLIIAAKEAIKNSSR
Method: as §2

FGFR2 = FGFR2 (Homo sapiens, UniProt P21802); assay: Kinase profiling panel: FGFR2; format: biochemical; settings: 5 μM compound; average of triplicate
Sequence of FGFR2 (P21802 22-821, species assumed): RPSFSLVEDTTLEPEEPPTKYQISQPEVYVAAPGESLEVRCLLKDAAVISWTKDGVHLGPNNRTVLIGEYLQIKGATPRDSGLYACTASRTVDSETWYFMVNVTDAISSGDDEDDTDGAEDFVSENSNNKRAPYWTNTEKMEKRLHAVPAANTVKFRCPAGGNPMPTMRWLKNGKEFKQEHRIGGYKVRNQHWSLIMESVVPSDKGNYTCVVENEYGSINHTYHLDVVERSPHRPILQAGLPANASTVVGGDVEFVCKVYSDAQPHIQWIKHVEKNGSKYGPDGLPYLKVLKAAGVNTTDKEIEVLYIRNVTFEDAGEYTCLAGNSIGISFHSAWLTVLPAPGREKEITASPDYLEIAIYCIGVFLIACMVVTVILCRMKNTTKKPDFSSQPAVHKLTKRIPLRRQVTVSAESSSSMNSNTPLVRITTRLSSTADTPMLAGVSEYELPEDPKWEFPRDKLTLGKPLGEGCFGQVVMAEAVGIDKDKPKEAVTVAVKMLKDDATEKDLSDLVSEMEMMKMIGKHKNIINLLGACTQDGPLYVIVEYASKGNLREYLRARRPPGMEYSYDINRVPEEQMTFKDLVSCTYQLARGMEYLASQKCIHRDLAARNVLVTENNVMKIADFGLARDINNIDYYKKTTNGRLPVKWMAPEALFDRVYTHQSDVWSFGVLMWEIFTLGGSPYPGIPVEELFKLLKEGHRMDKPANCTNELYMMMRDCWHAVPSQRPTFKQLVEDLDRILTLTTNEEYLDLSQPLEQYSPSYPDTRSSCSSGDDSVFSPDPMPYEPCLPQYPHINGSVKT
Method: as §2

Ret = Ret (Homo sapiens, UniProt P07949); assay: Kinase profiling panel: Ret; format: biochemical; settings: 5 μM compound; average of triplicate
Method: as §2

S6 phosphorylation = assay: Western blot, S6 phosphorylation in thyroid cancer cells; format: cell-based, Human; settings: for S6 phosphorylation, BCPAP and TPC1 cells: BCPAP and TPC1 cells (FIG. 4B)
Method: as §3, §4

p70S6K = p70S6K (Homo sapiens, UniProt P23443); assay: Kinase profiling panel: p70S6K; format: biochemical; settings: 5 μM compound; for % activity vs. DMSO, p70S6K: average of triplicate
Sequence of p70S6K (P23443 whole entry): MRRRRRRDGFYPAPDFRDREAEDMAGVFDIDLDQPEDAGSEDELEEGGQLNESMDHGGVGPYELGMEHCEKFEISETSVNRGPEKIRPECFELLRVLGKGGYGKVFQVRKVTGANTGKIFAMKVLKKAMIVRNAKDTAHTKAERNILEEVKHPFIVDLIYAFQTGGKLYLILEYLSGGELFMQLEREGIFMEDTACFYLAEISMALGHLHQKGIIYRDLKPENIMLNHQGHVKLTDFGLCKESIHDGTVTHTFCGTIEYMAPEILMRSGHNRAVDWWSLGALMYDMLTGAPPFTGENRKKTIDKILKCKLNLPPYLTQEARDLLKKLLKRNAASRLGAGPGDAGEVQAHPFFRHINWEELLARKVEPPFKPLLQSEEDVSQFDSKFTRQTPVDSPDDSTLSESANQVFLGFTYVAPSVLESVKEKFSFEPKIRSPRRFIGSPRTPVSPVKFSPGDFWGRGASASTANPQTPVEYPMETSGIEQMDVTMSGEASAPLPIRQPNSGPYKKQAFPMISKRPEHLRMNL
Method: as §2

TPC1 cells = assay: Boyden chamber migration assay, TPC1; format: cell-based, Human; settings: 5 μM, 24 hours, P<0.05 versus DMSO
Method: as §1

IGF-1R, activated = IGF-1R, activated (Homo sapiens, UniProt P08069); assay: Kinase profiling panel: IGF-1R, activated; format: biochemical; settings: 5 μM compound; average of triplicate
Sequence of IGF-1R, activated (P08069 31-1367): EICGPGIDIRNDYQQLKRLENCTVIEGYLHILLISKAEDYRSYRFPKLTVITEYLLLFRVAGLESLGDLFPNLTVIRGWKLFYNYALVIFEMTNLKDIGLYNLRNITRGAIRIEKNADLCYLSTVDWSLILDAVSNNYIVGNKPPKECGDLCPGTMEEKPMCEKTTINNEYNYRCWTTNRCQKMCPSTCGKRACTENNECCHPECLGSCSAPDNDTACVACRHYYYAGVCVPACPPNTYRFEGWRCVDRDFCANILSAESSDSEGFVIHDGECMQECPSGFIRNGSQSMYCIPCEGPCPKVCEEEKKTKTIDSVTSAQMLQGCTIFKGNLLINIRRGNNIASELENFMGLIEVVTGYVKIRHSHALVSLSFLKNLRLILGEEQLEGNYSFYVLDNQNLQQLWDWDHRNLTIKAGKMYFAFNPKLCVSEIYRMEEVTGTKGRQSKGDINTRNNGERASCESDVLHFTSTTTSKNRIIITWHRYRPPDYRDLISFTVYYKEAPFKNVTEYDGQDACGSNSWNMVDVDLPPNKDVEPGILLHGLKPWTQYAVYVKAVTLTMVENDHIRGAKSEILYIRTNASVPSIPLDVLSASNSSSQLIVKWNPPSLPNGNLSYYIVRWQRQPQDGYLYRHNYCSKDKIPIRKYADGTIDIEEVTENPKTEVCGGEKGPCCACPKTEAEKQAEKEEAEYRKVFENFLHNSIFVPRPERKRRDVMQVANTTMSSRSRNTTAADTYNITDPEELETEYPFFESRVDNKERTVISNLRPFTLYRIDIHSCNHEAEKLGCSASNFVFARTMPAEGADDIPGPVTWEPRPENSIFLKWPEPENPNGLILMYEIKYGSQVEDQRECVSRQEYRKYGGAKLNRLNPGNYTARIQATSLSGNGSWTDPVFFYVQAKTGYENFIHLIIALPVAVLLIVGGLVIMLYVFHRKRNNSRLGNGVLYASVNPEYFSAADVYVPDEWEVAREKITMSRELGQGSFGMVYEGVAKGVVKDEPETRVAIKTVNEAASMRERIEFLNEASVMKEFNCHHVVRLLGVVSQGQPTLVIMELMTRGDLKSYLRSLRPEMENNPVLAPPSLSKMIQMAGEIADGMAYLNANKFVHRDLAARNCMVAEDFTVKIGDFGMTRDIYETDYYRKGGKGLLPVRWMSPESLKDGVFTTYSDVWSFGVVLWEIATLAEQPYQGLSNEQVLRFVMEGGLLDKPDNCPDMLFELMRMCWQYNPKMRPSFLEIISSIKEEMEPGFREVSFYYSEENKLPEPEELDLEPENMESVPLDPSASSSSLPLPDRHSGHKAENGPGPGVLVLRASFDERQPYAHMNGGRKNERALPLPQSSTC
Method: as §2

Row | Compound | Migration of FTC133 cells (FTC133 cells) | % activity vs. DMSO, MEK1 (MEK1) | remaining activity at 5 µM (PKBγ) | % activity vs. DMSO, PAK4 (PAK4) | PAK phosphorylation of vimentin (Western blot) [1] | IC50 [1] | Dose-dependency of PAK inhibition (Vimentin phosphorylation) [1] | % activity vs. DMSO, PAK3 (PAK3) | % activity vs. DMSO, FGFR2 (FGFR2) | % activity vs. DMSO, Ret (Ret) | S6 phosphorylation, BCPAP and TPC1 cells (S6 phosphorylation) | S6 phosphorylation, FTC133 cells (S6 phosphorylation; FTC133 cells (FIG. 4B)) | inhibition at 5 µM (p70S6K) | % activity vs. DMSO, p70S6K (p70S6K) | Migration of TPC1 cells (TPC1 cells) | % activity vs. DMSO, IGF-1R, activated (IGF-1R, activated) | inhibition at 5 µM (PKBγ)
1 | CC(C)NC(=O)c1cc(-c2ccc3ccc4ccccc4c3c2)n(-c2ccc(NC(=O)CN)cc2)n1 [Compound 15, 1-(4-(2-Aminoacetamido)phenyl)-N-isopropyl-5-(phenanthren-3-yl)-1H-pyrazole-3-carboxamide] | not inhibited; also recorded: neither compound significantly inhibited migration | 101% | 56% | 105% | inhibited PAK | ≤ 5 µM | inhibited PAK1 in a dose dependent manner | 99% | 99% | 76% | inhibited 56 phosphorylation | inhibited 56 phosphorylation | > 50% | 38% | decreased cell motility; also recorded: inhibited migration | 83% | –
2 | NCCC(=O)Nc1ccc(-n2nc(C(F)(F)F)cc2-c2ccc3ccc4ccccc4c3c2)cc1 [Compound 4, 3-amino-N-(4-(5-(phenanthren-3-yl)-3-(trifluoromethyl)-1H-pyrazol-1-yl)phenyl)-propanamide] | not inhibited; also recorded: neither compound significantly inhibited migration | 106% | 33% | 101% | inhibited PAK | ≤ 5 µM | inhibited PAK1 in a dose dependent manner | 211% | 92% | 97% | inhibited this phosphorylation | – | > 50% | 28% | decreased cell motility; also recorded: inhibited migration | 97% | > 50%
